Data from patent US20220064167A1, “IMIDAZO-PYRAZOLE CARBOXAMIDE DERIVATIVES AS ANTICANCER AGENTS AND THE SYNTHESIS THEREOF” (AVIDIN KFT., priority 2018, published 2022).

Key:
[1] = test system: human promyelocytic leukemia, HL-60 cells; test: resazurin viability assay, 72 h (Table 1); type: cell-based; details: 72h incubation, 156 nM-100 μM
Description: (§1) In our experiments three different cell lines were used. Cells were purchased from the American Type Culture Collection (ATCC, Manassas, Va., USA). The human breast adenocarcinoma cell line, MCF-7 cells were maintained in Dulbecco's Modified Eagle Medium/Nutrient Mixture F-12 (DMEM/F12) 10% fetal calf serum (FCS, Gibco) and mouse mammary carcinoma 4T1 and human promyelocytic leukemia, HL-60 cells were maintained in Roswell Park Memorial Institute 1640 medium (RPMI-1640) 10% FCS. Media were supplemented with 2 mM GlutaMAX, and 100 U/mL penicillin, 100 μg/mL streptomycin (Life Technologies, Carlsbad, Calif., USA). Cell cultures were maintained at 37° C. in a humidified incubator in an atmosphere of 5% CO2 (Sanyo, Japan).
(§2) For viability assays cells were seeded in 96 well plates (MCF7 and 4T1: 6000, HL60: 120.000 cells/well) and incubated overnight. Compounds were dissolved in dimethyl sulfoxide (DMSO). Cells were treated with an increasing concentration of compounds having the general formula (I.) (156 nM-100 μM). Cell viability was determined after 72h incubation. Resazurin reagent (Sigma-Aldrich) was dissolved in PBS (pH 7.4) at 0.15 mg/ml concentration, sterile filtered (0.22 μm, Merck Millipore) and aliquoted at −20° C. Resazurin reagent (Sigma-Aldrich) was added at a final concentration of 25 μg/ml. After 2 hours incubation at 37° C. 5% CO2 fluorescence (530 nm excitation/580 nm emission) was recorded on a multimode microplate reader (Cytofluor4000, PerSeptive Biosytems). Viability was calculated with relation to untreated control cells and blank wells containing media without cells. IC50 values (50% inhibiting concentration) were calculated by GraphPad Prism® 5 (La Jolla, Calif., USA).

[2] = test system: mouse mammary carcinoma 4T1; test: resazurin viability assay, 72 h (Table 1); type: cell-based; details: 72h incubation, 156 nM-100 μM
Description: as §1, §2

[3] = test system: human breast adenocarcinoma cell line, MCF-7; test: resazurin viability assay, 72 h (Table 1); type: cell-based; details: MCF7, 72h incubation, 156 nM-100 μM
Description: as §1, §2

SMILES | IC50 [1] | IC50 [2] | IC50 [3] | melting point
Cc1ccccc1NC(=O)c1cnn2c(NC(C)(C)CC(C)(C)C)c(C(C)(C)C)[nH]c12 [Example 40, 2-(Tert-butyl)-N-(o-tolyl)-3-((2,4,4-trimethylpentan-2-yl)amino)-1H-imidazo[1,2-b]pyrazole-7-carboxamide] | 2.12 µM | > 50 µM | 30.6 µM | 172 °C
CCCCNC(=O)c1cnn2c(NC(C)(C)CC(C)(C)C)c(C(C)(C)C)[nH]c12 [Example 29, 2-(Tert-butyl)-N-butyl-3-((2,4,4-trimethylpentan-2-yl)amino)-1H-imidazo[1,2-b]pyrazole-7-carboxamide] | 2.72 µM | > 50 µM | 34.1 µM | 147 to 148 °C
CC(C)(C)CC(C)(C)Nc1c(C(C)(C)C)[nH]c2c(C(=O)Nc3ccccc3)cnn12 [Example 34, 2-(Tert-butyl)-N-phenyl-3-((2,4,4-trimethylpentan-2-yl)amino)-1H-imidazo[1,2-b]pyrazole-7-carboxamide] | 0.604 µM | 28.5 µM | 18.3 µM | 147 °C
COc1cc(-c2[nH]c3c(C(N)=O)cnn3c2NC(C)(C)CC(C)(C)C)ccc1OC(C)=O [Example 8, 4-(7-Carbamoyl-3-((2,4,4-trimethylpentan-2-yl)amino)-1H-imidazo[1,2-b]pyrazol-2-yl)-2-methoxyphenyl acetate] | 26.6 µM | 34.1 µM | 40.6 µM | 190 to 191 °C
CC(C)(C)CC(C)(C)Nc1c(C(C)(C)C)[nH]c2c(C(=O)Nc3cccnc3)cnn12 [Example 36, 2-(Tert-butyl)-N-(pyridin-3-yl)-3-((2,4,4-trimethylpentan-2-yl)amino)-1H-imidazo[1,2-b]pyrazole-7-carboxamide] | 0.934 µM | 2.59 µM | 1.9 µM | 186 to 187 °C
CC(C)(C)CC(C)(C)Nc1c(C(C)(C)C)[nH]c2c(C(=O)Nc3ccc(C#N)cc3)cnn12 [Example 54, 2-(Tert-butyl)-N-(4-cyanophenyl)-3-((2,4,4-trimethylpentan-2-yl)amino)-1H-imidazo[1,2-b]pyrazole-7-carboxamide] | 1.5 µM | > 50 µM | 9.71 µM | 199 °C
CCC(CC)(CCC#N)c1[nH]c2c(C(N)=O)cnn2c1NC(C)(C)CC(C)(C)C [Example 27, 2-(1-Cyano-3-ethylpentan-3-yl)-3-((2,4,4-trimethylpentan-2-yl)amino)-1H-imidazo[1,2-b]pyrazole-7-carboxamide] | 14.8 µM | 11.6 µM | 18 µM | 184 to 186 °C
CC(C)(C)CC(C)(C)Nc1c(C(C)(C)C)[nH]c2c(C(=O)Nc3ccon3)cnn12 [Example 39, 2-(Tert-butyl)-N-(isoxazol-3-yl)-3-((2,4,4-trimethylpentan-2-yl)amino)-1H-imidazo[1,2-b]pyrazole-7-carboxamide] | 0.935 µM | 2.85 µM | 1.7 µM | 185 to 186 °C
CCc1[nH]c2c(C(N)=O)cnn2c1NC(C)(C)CC(C)(C)C [Example 24, 2-Ethyl-3-((2,4,4-trimethylpentan-2-yl)amino)-1H-imidazo[1,2-b]pyrazole-7-carboxamide] | 27.9 µM | > 50 µM | > 50 µM | 207 to 209 °C
CC(C)(C)CC(C)(C)Nc1c(C(C)(C)C)[nH]c2c(C(=O)Nc3ccccn3)cnn12 [Example 35, 2-(Tert-butyl)-N-(pyridin-2-yl)-3-((2,4,4-trimethylpentan-2-yl)amino)-1H-imidazo[1,2-b]pyrazole-7-carboxamide] | 4.38 µM | 6.91 µM | 8.35 µM | 144 to 145 °C
COc1ccc(-c2[nH]c3c(C(N)=O)cnn3c2NC(C)(C)CC(C)(C)C)cc1 [Example 7, 2-(4-Methoxyphenyl)-3-((2,4,4-trimethylpentan-2-yl)amino)-1H-imidazo[1,2-b]pyrazole-7-carboxamide] | 19 µM | 25.2 µM | 18.6 µM | 124 to 125 °C
CC(C)(C)CC(C)(C)Nc1c(C(C)(C)C)[nH]c2c(C(=O)Nc3nccs3)cnn12 [Example 38, 2-(Tert-butyl)-N-(thiazol-2-yl)-3-((2,4,4-trimethylpentan-2-yl)amino)-1H-imidazo[1,2-b]pyrazole-7-carboxamide] | 2.86 µM | 2.41 µM | 1.95 µM | 125 to 127 °C
CC(C)(C)CC(C)(C)Nc1c(C(C)(C)C)[nH]c2c(C(=O)Nc3ccc(F)cc3)cnn12 [Example 50, 2-(Tert-butyl)-N-(4-fluorophenyl)-3-((2,4,4-trimethylpentan-2-yl)amino)-1H-imidazo[1,2-b]pyrazole-7-carboxamide] | 0.183 µM | 7.43 µM | 2.35 µM | 188 °C
CC(C)c1[nH]c2c(C(N)=O)cnn2c1NC(C)(C)CC(C)(C)C [Example 25, 2-Isopropyl-3-((2,4,4-trimethylpentan-2-yl)amino)-1H-imidazo[1,2-b]pyrazole-7-carbox-amide] | 7.79 µM | 3.63 µM | 10.6 µM | 132 to 134 °C
CC(C)(C)CC(C)(C)Nc1c(C(C)(C)C)[nH]c2c(C(=O)Nc3ccc(F)c(F)c3)cnn12 [Example 59, 2-(Tert-butyl)-N-(3,4-difluorophenyl)-3-((2,4,4-trimethylpentan-2-yl)amino)-1H-imidazo[1,2-b]pyrazole-7-carboxamide] | 2.41 µM | 19 µM | 10.3 µM | 162 to 164 °C
CC(C)(C)c1[nH]c2c(C(N)=O)cnn2c1NC1CCCCC1 [Example 18, 2-(Tert-butyl)-3-(cyclohexylamino)-1H-imidazo[1,2-b]pyrazole-7-carboxamide] | 2.95 µM | 4.24 µM | 4.07 µM | 148 to 149 °C
CC(C)(C)CC(C)(C)Nc1c(C(C)(C)C)[nH]c2c(C(=O)Nc3ccccc3F)cnn12 [Example 48, 2-(Tert-butyl)-N-(2-fluorophenyl)-3-((2,4,4-trimethylpentan-2-yl)amino)-1H-imidazo[1,2-b]pyrazole-7-carboxamide] | 2.04 µM | > 50 µM | > 50 µM | 153 to 154 °C
CC(C)(C)CC(C)(C)Nc1c(C(C)(C)C)[nH]c2c(C(=O)Nc3ccc(C(F)(F)F)cc3)cnn12 [Example 47, 2-(Tert-butyl)-N-(4-(trifluoromethyl)phenyl)-3-((2,4,4-trimethylpentan-2-yl)amino)-1H-imidazo[1,2-b]pyrazole-7-carboxamide] | > 50 µM | > 50 µM | 29 µM | 155 to 156 °C
CC(C)(C)CC(C)(C)Nc1c(-c2ccc(F)cc2)[nH]c2c(C(N)=O)cnn12 [Example 10, 2-(4-Fluorophenyl)-3-((2,4,4-trimethylpentan-2-yl)amino)-1H-imidazo[1,2-b]pyrazole-7-carboxamide] | 17.5 µM | > 50 µM | > 50 µM | 229 to 230 °C
C=CCC(C)(C)c1[nH]c2c(C(N)=O)cnn2c1NC(C)(C)CC(C)(C)C [Example 26, 2-(2-Methylpent-4-en-2-yl)-3-((2,4,4-trimethylpentan-2-yl)amino)-1H-imidazo[1,2-b]pyrazole-7-carboxamide] | 1.37 µM | 9.95 µM | 8.29 µM | 161 to 163 °C
CCOC(=O)c1ccc(NC(=O)c2cnn3c(NC(C)(C)CC(C)(C)C)c(C(C)(C)C)[nH]c23)cc1 [Example 55, Ethyl 4-(2-(tert-butyl)-3-((2,4,4-trimethylpentan-2-yl)amino)-1H-imidazo[1,2-b]pyrazole-7-carbox-amido)benzoate] | 8.5 µM | > 50 µM | > 50 µM | 127 to 128 °C
CN(C)c1ccc(NC(=O)c2cnn3c(NC(C)(C)CC(C)(C)C)c(C(C)(C)C)[nH]c23)cc1 [Example 57, 2-(Tert-butyl)-N-(4-(dimethylamino)phenyl)-3-((2,4,4-trimethylpentan-2-yl)amino)-1H-imidazo[1,2-b]pyrazole-7-carboxamide] | 0.297 µM | 11.8 µM | 10 µM | 176 to 177 °C
CC(C)(C)CC(C)(C)Nc1c(-c2ccc(C(F)(F)F)cc2)[nH]c2c(C(N)=O)cnn12 [Example 12, 2-(4-(Trifluoromethyl)phenyl)-3-((2,4,4-trimethylpentan-2-yl)amino)-1H-imidazo[1,2-b]pyrazole-7-carboxamide] | 13.2 µM | 20.9 µM | 12.7 µM | 192 to 193 °C
